The target of series [1] is T1, EthR protein (Mycobacterium tuberculosis, UniProt P9WMC1). The experiment in a line: Inhibition of interaction of EthR with its target DNA sequence (BIAcore). The format is binding, M. tuberculosis H37Rv. The settings on record: compound 3 μM, EthR 540 nM, 37° C. Here is the method: a) Measurement of the Activity of the Compounds on the Inhibition of Interaction of EthR with its Target DNA Sequence
The in vitro measurements of inhibition of binding of the EthR protein to its target DNA sequence were performed on a machine of BIAcore®2000 type (AB, Uppsala, Sweden).
The chips used are CM5 chips sold by the company GE Healthcare. Both the channels of a chip were activated with a solution containing 200 mM of EDC(N-ethyl-N′-(3-[…])carbodiimide) and 50 mM of NHS (N-hydroxysuccinimide). Next, streptavidin (500 ng/μl in a solution containing 10 mM of sodium acetate (pH 3.5) was injected over 12 minutes at a flow rate of 10 μl/minute. The 106-base-pair biotinylated DNA fragment corresponding to the ethA-R intergene region was deposited on one of the two channels of the chip at a rate of 200 ng/ml in order to obtain stable binding of streptavidin corresponding to 50 RU (resonance units). This DNA fragment was obtained by PCR using the chromosomal DNA of M. tuberculosis H37Rv as matrix and O-270: 5′-[…]-3′ (SEQ ID: No. 1) and O-271: 5′-biotin-[…]-3′ (SEQ ID: No. 2). The second channel was functionalized with a 113-base-pair biotinylated DNA fragment (fragment +14 to +127 of the bla gene of E. coli PCR-amplified using the following oligonucleotides: O-343: 5′-[…]-3′ (SEQ ID: No. 3) and O-344: 5′-biotin-[…]-3′ (SEQ ID: No. 4).
Measurement of the binding of the EthR protein to the immobilized DNA was performed at 37° C. in a reference buffer containing 10 mM of Tris-HCl (pH=7.5), 200 mM of NaCl, 0.1 mM of EDTA, 1 mM of DTT and 1% of DMSO at a flow rate of 20 μl/minute. The specific interaction (SI) of EthR with the 106-base-pair double-stranded DNA sequence, expressed in resonance units, corresponds to the difference in signal observed between the two channels.
For each inhibition measurement, the compounds of the invention are dissolved in the reference buffer at a concentration of 3 μM. The compounds of the invention are then incubated in the presence of the protein (540 nM) at 37° C. for 5 minutes, and each solution is then injected onto the two channels of the chip for 3 minutes at a flow rate of 20 μl/minute. The inhibition values are calculated at the end of the injection according to the following equation: […]
in which SIEthR corresponds to the value measured without ligand and SIEthR+ligand corresponds to the value measured in the presence of to ligand.
Background: SPR reads the build-up and loss of mass on a sensor chip optically.

Series [2] has as its system M. bovis BCG. The format is cell-based, M. bovis BCG 1173P2. To be noted: from MIC of ETH alone (6 μM) and MIC of ETH with 25 μM compound.
The subject of series [3] is M. tuberculosis H37Rv. The experiment in a line: Ethionamide-potentiating effect, fluorimetric detection on Bactec MGIT 960. To be noted: compound 25 μM. The format is cell-based.
The nature of series [4]: Measurement of the solubility (PBS pH 7.4 vs methanol, LC/MS). The format is physicochemical. The settings on record: pH 7.4, aqueous buffer, kinetic from dmso stock. Here is the method:
e) Measurement of the Solubility of the Compounds of the Invention
40 μl of a solution containing a compound of the invention at a concentration of 10 mM in DMSO were diluted in 1.960 ml of methanol, and another 40 μl were diluted in 1.960 ml of a PBS solution containing 675 mM of NaCl, 13.5 mM of KCl, 50 mM of Na2HPO4.2H2O and 10 mM of KH2PO4 at a pH of 7.4. The two solutions were stirred for 24 hours at room temperature, and then centrifuged for 5 minutes and filtered through 0.45 μm filters. 20 μl of each solution were then diluted in 118 μl of methanol and analyzed by liquid chromatography coupled to mass spectrometry (LC/MS). The solubility was determined by the ratio of the areas under the curve of the mass signal for the compound of the invention, according to the following equation: […]

Series [5] addresses T1, EthR protein. Briefly: In vitro measurement of the IC50 (EthR/DNA binding, BIAcore). Also noted: species or system M. tuberculosis H37Rv. Here is the method: b) In Vitro Measurement of the IC50 of the Compounds of the Invention.
The in vitro measurement of this datum was performed according to the same principle as for the measurement of inhibition of the EthR/DNA binding using the BIAcore technique.
The specific interaction between EthR and the specific 106-bp DNA fragment was measured on a range of six concentrations of the compounds of the invention, this range extending from 0.11 μM to 27 μM. The IC50 values are then extrapolated from the sigmoid curves obtained.

Each structure is given as a SMILES string. ≈ marks a conversion by molar mass, not a printed value.

This is an account of results in patent publication US8338599B2, “Compounds having a potentiating effect on the activity of ethionamide and uses thereof” (priority 2006, dated 2012).

A word on the inhibition: it is the percentage by which the read-out fell short of the control. Low readings indicate a weak effect, high ones a strong effect. One may read the solubility as the concentration that dissolves in the medium under given conditions. The low end stands for a poorly soluble substance, the high end for a readily soluble substance. For orientation: IC50 means the concentration at which inhibition is half-maximal.

T1 sequence (P9WMC1 whole entry, looked up): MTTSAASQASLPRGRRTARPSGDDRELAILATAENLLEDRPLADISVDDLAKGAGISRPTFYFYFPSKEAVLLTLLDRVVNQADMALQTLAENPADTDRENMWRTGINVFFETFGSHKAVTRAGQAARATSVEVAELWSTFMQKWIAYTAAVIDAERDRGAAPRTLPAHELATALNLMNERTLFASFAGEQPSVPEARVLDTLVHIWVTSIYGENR

Regarding `C=CCCC(=O)N1CCC(c2nc(-c3cccs3)no2)CC1` [Compound 20, 1-[4-(3-thiophen-2-yl[1,2,4]oxadiazol-5-yl)piperid-1-yl]pent-4-en-1-one], the inhibition at 3 µM in series [1] came to 53%. Further, in series [2], the Potentiation % amounted to 2500%. The “potentiation of the ethionamide activity (factor)” value in series [3] is “about 20 fold”. The molecule also registered a solubility at 24 h in series [4] of 63.5 µg/mL (≈ 200 µM). Moreover, in series [5], the IC50 came to 1 µM.

For the molecule `N#CCC(=O)N1CCC(c2nc(-c3cccs3)no2)CC1` [Compound 22, 3-oxo-3-[4-(3-thiophen-2-yl[1,2,4]oxadiazol-5-yl)piperid-1-yl]propionitrile], 3 µM produced 28% inhibition in series [1]. The Potentiation % in series [2] is on record as 2500%. Moreover, the “potentiation of the ethionamide activity (factor)” value is on record as around 10 fold in series [3] and “about 10 fold” in series [3] (listed as compound 22). The molecule also returned a solubility at 24 h in series [4] of 60.4 µg/mL (≈ 200 µM). In addition, in series [5], the IC50 came to 3.33 µM.

In series [1], `O=C(Nc1ccccc1)N1CCC(c2nc(-c3cccs3)no2)CC1` [Compound 48, 4-(3-thiophen-2-yl[1,2,4]oxadiazol-5-yl)piperidine-1-carboxylic acid phenylamide] displayed an inhibition at 3 µM of 56%. The molecule further came in with a solubility at 24 h in series [4] of 0.86 µg/mL (≈ 2.43 µM). In series [5], this molecule registered a half-maximal inhibitory concentration (IC50) of 1.14 µM.

As for `O=C(Nc1cccs1)N1CCC(c2nc(-c3cccs3)no2)CC1` [Compound 50, 4-(3-thiophen-2-yl[1,2,4]oxadiazol-5-yl)piperidine-1-carboxylic acid thiophen-2-ylamide], the inhibition at 3 µM in series [1] worked out at 96%. Further, in series [4], the solubility at 24 h turned out to be 2.9 µg/mL (≈ 8.05 µM). For the same molecule, in series [5], the IC50 amounted to 0.44 µM.

For the molecule `O=C(c1ccccc1)N1CCC(c2nc(-c3cccs3)no2)CC1` [Compound 54, phenyl[4-(3-thiophen-2-yl[1,2,4]oxadiazol-5-yl)piperid-1-yl]methanone], testing at 3 µM in series [1] gave an inhibition of 5%. In addition, in series [4], the solubility at 24 h came out at 38.7 µg/mL (≈ 114 µM).
